Patent publication US20250134857A1, “Fast Acting Joint Health Composition and Use Thereof” (Lonza Greenwood LLC, priority 2022, published 2025)

Tests used:
Format in all cases: cell-based, Human
IL-6 = IL-6 expression by real-time PCR in IL-1β-treated SW1353 cells; conditions: for IL-6 Percent Change over Control: 1 h pretreatment, then IL-1β (5 ng/ml) 24 hr
Method: (§1) Human SW1353 chondrosarcoma cell line (ATCC, HTB-94) were grown in monolayer at 37° C., in a humidified atmosphere under 5% CO2, with Dulbecco's Modified Eagle Medium (DMEM) supplemented with 10% (v/v) fetal bovine serum (FBS) and 100 U/ml penicillin-streptomycin solution until 80% confluency with 0.1% v/v DMSO as a vehicle control.
(§2) The SW1353 cells were starved for 24 h with serum-free DMEM medium (containing 100 U/ml penicillin-streptomycin), and then pretreated with various concentrations of andrographolide and tamarind seed extract at three concentrations (in triplicate) for one hour, followed by addition of IL-1β (5 ng/ml) in culture media for an additional 24 hr. In addition, sulforaphane was tested as a positive control in the same manner as andrographolide and TSE, which is illustrated in FIG. 1E.
(§3) Real-time PCR was performed with the use of the SYBR Green PCR Master Mix (Applied Biosystems) according to the manufacturer's protocol and amplified on the ABI Prism 7000 sequence detection system. The results are illustrated in FIGS. 1A-1E, and in Table 1.

SOX-9 = SOX-9 expression by real-time PCR in IL-1β-treated SW1353 cells; conditions: 1 h pretreatment, then IL-1β (5 ng/ml) 24 hr
Method: as §1, §2, §3

COX-2 = COX-2 expression by real-time PCR in IL-1β-treated SW1353 cells; conditions: 1 h pretreatment, then IL-1β (5 ng/ml) 24 hr
Method: as §1, §2
Real-time PCR was performed with the use of the SYBR Green PCR Master Mix (Applied Biosystems) according to the manufacturer's protocol and amplified on the ABI Prism 7000 sequence detection system.

IL-1A = IL-1A expression by real-time PCR in IL-1β-treated SW1353 cells; conditions: for IL-1A Percent Change over Control: 1 h pretreatment, then IL-1β (5 ng/ml) 24 hr
Method: as §1, §2, §3

MMP-13 = MMP-13 expression by real-time PCR in IL-1β-treated SW1353 cells; conditions: for MMP-13 Percent Change over Control: 1 h pretreatment, then IL-1β (5 ng/ml) 24 hr
Method: as §1, §2, §3

[1] = summary of Example 1, SW1353 cells, IL-1β

`C=C1CC[C@@H]2[C@](C)(CO)[C@H](O)CC[C@@]2(C)[C@@H]1C/C=C1/C(=O)OC[C@H]1O` [Andrographolide, andrographolide] was tested, and the “IL-6 Percent Change over Control” value (IL-6; Dose 2.78) was 46.7%, the “IL-6 Percent Change over Control” value (IL-6; Dose 8.33) was 62.8% and the “IL-6 Percent Change over Control” value (IL-6; Dose 25) was 101.3%. For the same compound, the “IL-6, result in words” value (IL-6; [1]) was “significant reduction”, the “SOX-9 Percent Change over Control” value (SOX-9; Dose 2.78) was 14.2% and the “SOX-9 Percent Change over Control” value (SOX-9; Dose 8.33) was 10.8%. For the same compound, the “SOX-9 Percent Change over Control” value (SOX-9; Dose 25) was 40.5%, the “COX-2 Percent Change over Control” value (COX-2; Dose 2.78) was 27.1% and the “COX-2 Percent Change over Control” value (COX-2; Dose 8.33) was −22.8%. For the same compound, the “COX-2 Percent Change over Control” value (COX-2; Dose 25) was 59.8%, the “IL-1A Percent Change over Control” value (IL-1A; Dose 2.78) was 28.3% and the “IL-1A Percent Change over Control” value (IL-1A; Dose 8.33) was 46.1%. For the same compound, the “IL-1A Percent Change over Control” value (IL-1A; Dose 25) was 73.1%, the “IL-1, result in words” value (IL-1A; [1]) was “significant reduction” and the “MMP-13 Percent Change over Control” value (MMP-13; Dose 2.78) was 93.0%. For the same compound, the “MMP-13 Percent Change over Control” value (MMP-13; Dose 8.33) was 87.2%, the “MMP-13 Percent Change over Control” value (MMP-13; Dose 25) was 108.2% and the “MMP-13, result in words” value (MMP-13; [1]) was “significant reduction”.
